# From paper PMC9358669, “Native metabolomics identifies the rivulariapeptolide family of protease inhibitors” (Nature Communications, 2022)
# Like-named read-outs stand apart in the source and are kept apart here. Starred links: 1 amine or outer side, 2 acyl side, 3 side chain; linkers in the order of their positions; H or OH if unused. Positions of bridges follow the written chain, without caps; N, C: chain ends. Non-standard residues stand in square brackets, D forms with d. Residues, ends and D or L forms follow the SMILES beside them. *: point of attachment. Ahp(3S,6R)alloIle = CC[C@@H](C)[C@@H](C(=O)[*:2])N1C(=O)[C@@H](N[*:1])CC[C@H]1O; Propanoyl(2R-OH,3-(4-HOPh)) = O=C([C@H](O)Cc1ccc(O)cc1)*; Propanoyl(2R-OMe,3-OSO3H) = CO[C@H](COS(=O)(=O)O)C(=O)*; NMeTyr(3-Br,OMe) = CN[C@@H](Cc1ccc(OC)c(Br)c1)C(=O)O; NMeF = CN[C@@H](Cc1ccccc1)C(=O)O
# Experiments:
# Chymotrypsin [1] = system: Chymotrypsin; design: method as in earlier work; settings: Supplementary Table 5, Top 50 chymotrypsin inhibitors among Ahp-cyclodepsipeptides; cited from earlier work
# Chymotrypsin [2] = molecular target: T1, Chymotrypsin (Bos taurus, UniProt P00766); experiment: Chymotrypsin inhibition, fluorogenic substrate assay (Suc-Ala-Ala-Pro-Phe-AMC); assay type: biochemical; settings: for Mean (RFU/s): Chymotrypsin
# T1 construct: purchased Sigma-Aldrich
# Elastase = molecular target: T2, Elastase (Sus scrofa, UniProt P00772); experiment: Elastase inhibition, fluorogenic substrate assay (MeOSuc-Ala-Ala-Pro-Val-AMC); assay type: biochemical, Sus domesticus; settings: for Mean (RFU/s): Elastase
# T2 construct: purchased Sigma-Aldrich
# T2 sequence (P00772 27-266): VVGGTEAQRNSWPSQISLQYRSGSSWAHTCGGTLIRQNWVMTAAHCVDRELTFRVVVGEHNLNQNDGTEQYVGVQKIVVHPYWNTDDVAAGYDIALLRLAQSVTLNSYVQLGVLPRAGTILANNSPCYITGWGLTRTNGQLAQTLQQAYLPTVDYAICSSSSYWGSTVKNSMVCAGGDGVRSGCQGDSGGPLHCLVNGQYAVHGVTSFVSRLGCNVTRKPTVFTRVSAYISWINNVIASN
# Proteinase K = molecular target: T3, Proteinase K (Parengyodontium album, UniProt P06873); experiment: Proteinase K inhibition, fluorogenic substrate assay (Suc-Ala-Ala-Pro-Phe-AMC); assay type: biochemical, Tritirachium album; settings: 40 min pre-incubation; for Mean (RFU/s): Proteinase K
# T3 construct: purchased Roche
# T3 sequence (P06873 106-384): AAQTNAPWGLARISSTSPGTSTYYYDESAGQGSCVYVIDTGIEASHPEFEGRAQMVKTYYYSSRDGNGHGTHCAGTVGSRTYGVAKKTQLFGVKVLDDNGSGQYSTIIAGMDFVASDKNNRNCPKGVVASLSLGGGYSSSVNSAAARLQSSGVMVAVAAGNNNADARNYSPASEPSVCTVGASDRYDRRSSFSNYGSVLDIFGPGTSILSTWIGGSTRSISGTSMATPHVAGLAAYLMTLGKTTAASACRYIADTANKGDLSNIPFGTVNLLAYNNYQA
# [3] = inhibitor concentration 0.0508053 nM, 40 min pre-incubation
# [4] = inhibitor concentration 0.152416 nM, 40 min pre-incubation
# [5] = inhibitor concentration 0.457247 nM, 40 min pre-incubation
# [6] = inhibitor concentration 1.37174 nM, 40 min pre-incubation
# [7] = inhibitor concentration 4.11523 nM, 40 min pre-incubation
# [8] = inhibitor concentration 12.3457 nM, 40 min pre-incubation
# [9] = inhibitor concentration 37.037 nM, 40 min pre-incubation
# [10] = inhibitor concentration 111.111 nM, 40 min pre-incubation
# [11] = inhibitor concentration 333.333 nM, 40 min pre-incubation
# [12] = inhibitor concentration 1000 nM, 40 min pre-incubation
# [13] = inhibitor concentration 3000 nM, 40 min pre-incubation
# [14] = replacement of Abu (compound 2) for Leu (1)
smiles,measurement,setting,value
C/C=C1\NC(=O)[C@@H](NC(=O)[C@@H](NC(=O)[C@H](C)NC(=O)CCC)C(C)C)[C@@H](C)OC(=O)[C@H](C(C)C)NC(=O)[C@H](Cc2ccc(O)cc2)N(C)C(=O)[C@H](Cc2ccccc2)N2C(=O)[C@H](CC[C@H]2O)NC1=O [Bouillomide A],IC50,Chymotrypsin [1],170 nM
CCC(=O)N[C@@H](CCC(N)=O)C(=O)N[C@@H]1C(=O)N[C@@H](CC(C)C)C(=O)N[C@H]2CC[C@@H](O)N(C2=O)[C@@H](Cc2ccccc2)C(=O)N(C)[C@@H](Cc2ccc(O)cc2)C(=O)N[C@@H](C(C)C)C(=O)O[C@@H]1C [Crocapeptin A1],IC50,Chymotrypsin [1],100 nM
CC(C)C[C@@H]1NC(=O)[C@@H](NC(=O)[C@H](CCC(N)=O)NC(=O)C(C)C)[C@@H](C)OC(=O)[C@H](C(C)C)NC(=O)C(Cc2ccc(O)cc2)N(C)C(=O)[C@H](Cc2ccccc2)N2C(=O)[C@H](CC[C@H]2O)NC1=O (some centres unmarked) [Crocapeptin A2],IC50,Chymotrypsin [1],100 nM
CCC(C)C(=O)N[C@@H](CCC(N)=O)C(=O)N[C@@H]1C(=O)N[C@@H](CC(C)C)C(=O)N[C@H]2CC[C@@H](O)N(C2=O)[C@@H](Cc2ccccc2)C(=O)N(C)[C@@H](Cc2ccc(O)cc2)C(=O)N[C@@H](C(C)C)C(=O)O[C@@H]1C (some centres unmarked) [Crocapeptin A3],IC50,Chymotrypsin [1],100 nM
CCCCCC(=O)N[C@@H](CC(=O)O)C(=O)N[C@@H]1C(=O)N[C@@H](Cc2ccc(O)cc2)C(=O)N[C@H]2CC[C@@H](O)N(C2=O)[C@@H](CC(C)C)C(=O)N(C)[C@@H](Cc2ccccc2)C(=O)N[C@@H](C(C)C)C(=O)O[C@@H]1C [Cyanopeptolin 963A],IC50,Chymotrypsin [1],900 nM
CCCCCC(=O)NC(CC(=O)O)C(=O)NC1C(=O)NC(Cc2ccc(O)cc2)C(=O)NC2CCC(O)N(C2=O)C(Cc2ccccc2)C(=O)N(C)C(CCc2ccc(O)cc2)C(=O)NC(C(C)C)C(=O)OC1C (centres unmarked) [Cyanopeptolin CP1027],IC50,Chymotrypsin [1],260 nM
"CC[C@@H](C)[C@H]1C(=O)N(C)[C@@H](Cc2ccc(OC)c(Br)c2)C(=O)N[C@@H]([C@@H](C)CC)C(=O)O[C@H](C)[C@H](NC(=O)[C@@H](NC(=O)[C@@H](COS(=O)(=O)O)OC)C(C)C)C(=O)N[C@@H](CCCCN)C(=O)N[C@H]2CC[C@@H](O)N1C2=O [Jizanpeptin C] ({Propanoyl(2R-OMe,3-OSO3H)}-VTK[Ahp(3S,6R)alloIle][NMeTyr(3-Br,OMe)]I; ester 2-C)",IC50,Chymotrypsin [1],1400 nM
CC(C)C[C@@H]1NC(=O)[C@@H](NC(=O)[C@@H](NC(=O)[C@H](C)NC(=O)[C@H](CCCc2ccc(O)cc2)NC(=O)[C@H](O)CO)C(C)C)[C@@H](C)OC(=O)[C@H](C(C)C)NC(=O)[C@H](Cc2ccc(O)c(Br)c2)N(C)C(=O)[C@@H]2[C@H](C)O[C@@H]3CC[C@H](NC1=O)C(=O)N23 [Largamide D oxazolidine],IC50,Chymotrypsin [1],928 nM
CCCCCC(=O)NCC(=O)N[C@H](C(=O)N[C@@H]1C(=O)N[C@@H](CCC(N)=O)C(=O)N[C@H]2CC[C@@H](O)N(C2=O)[C@@H](Cc2ccccc2)C(=O)N(C)[C@@H](Cc2c[nH]c3ccccc23)C(=O)N[C@@H](C(C)C)C(=O)O[C@@H]1C)[C@@H](C)O [Micropeptin 103],IC50,Chymotrypsin [1],1000 nM
CCCCCC(=O)N[C@@H](CCC(=O)O)C(=O)N[C@@H]1C(=O)N[C@@H](Cc2ccc(O)cc2)C(=O)N[C@H]2CC[C@@H](O)N(C2=O)[C@@H](Cc2ccccc2)C(=O)N(C)[C@@H](Cc2ccc(O)cc2)C(=O)N[C@@H](C(C)C)C(=O)O[C@@H]1C [Micropeptin C],IC50,Chymotrypsin [1],1100 nM
CC[C@@H](C)[C@H]1NC(=O)[C@@H](Cc2ccccc2)N(C)C(=O)[C@@H](CC(C)C)N2C(=O)[C@@H](CC[C@@H]2O)NC(=O)[C@@H](Cc2ccc(O)cc2)NC(=O)[C@H](NC(=O)[C@H](CCC(N)=O)NC(=O)[C@H](O)Cc2ccc(O)cc2)[C@@H](C)OC1=O [Micropeptin DR1056],IC50,Chymotrypsin [1],1600 nM
CCCCCCCC(=O)N[C@@H](CCC(=O)O)C(=O)N[C@@H]1C(=O)N[C@@H](Cc2ccc(O)cc2)C(=O)N[C@H]2CC[C@@H](O)N(C2=O)[C@@H](Cc2ccccc2)C(=O)N(C)[C@@H](Cc2ccc(O)cc2)C(=O)N[C@@H](C(C)C)C(=O)O[C@@H]1C [Micropeptin D],IC50,Chymotrypsin [1],1200 nM
CCCCCC(=O)N[C@@H](CCC(=O)O)C(=O)N[C@@H]1C(=O)N[C@@H](Cc2ccc(O)cc2)C(=O)N[C@H]2CC[C@@H](O)N(C2=O)[C@@H](CC(C)C)C(=O)N(C)[C@@H](Cc2ccc(O)cc2)C(=O)N[C@@H](C(C)C)C(=O)O[C@@H]1C [Micropeptin E],IC50,Chymotrypsin [1],1000 nM
CCCCCCCC(=O)N[C@@H](CCC(=O)O)C(=O)N[C@@H]1C(=O)N[C@@H](Cc2ccc(O)cc2)C(=O)N[C@H]2CC[C@@H](O)N(C2=O)[C@@H](CC(C)C)C(=O)N(C)[C@@H](Cc2ccc(O)cc2)C(=O)N[C@@H](C(C)C)C(=O)O[C@@H]1C [Micropeptin F],IC50,Chymotrypsin [1],1500 nM
CC[C@H](C)[C@@H]1NC(=O)[C@H](Cc2ccccc2)N(C)C(=O)[C@H](C(C)C)N2C(=O)[C@H](CC[C@H]2O)NC(=O)[C@H](CC2C=CC(O)CC2)NC(=O)[C@@H](NC(=O)[C@@H](CCC(N)=O)NC(=O)C(O)Cc2ccc(O)cc2)[C@H](C)OC1=O (some centres unmarked) [Micropeptin KB1046],IC50,Chymotrypsin [1],220 nM
"CC[C@@H](C)[C@H]1C(=O)N(C)[C@@H](Cc2ccccc2)C(=O)N[C@@H](C(C)C)C(=O)O[C@H](C)[C@H](NC(=O)[C@H](CCC(N)=O)NC(=O)[C@H](O)Cc2ccc(O)cc2)C(=O)N[C@@H](Cc2ccc(O)cc2)C(=O)N[C@H]2CC[C@@H](O)N1C2=O [Micropeptin KT1042] ({Propanoyl(2R-OH,3-(4-HOPh))}-QTY[Ahp(3S,6R)alloIle][NMeF]V; ester 2-C)",IC50,Chymotrypsin [1],260 nM
CCCCCC(=O)NCC(=O)N[C@H](C(=O)N[C@@H]1C(=O)N[C@@H](CCC(N)=O)C(=O)N[C@H]2CC[C@@H](O)N(C2=O)[C@@H](Cc2ccccc2)C(=O)N(C)[C@@H](Cc2ccc(O)cc2)C(=O)N[C@@H](C(C)C)C(=O)O[C@@H]1C)[C@@H](C)O [Micropeptin LH1021],IC50,Chymotrypsin [1],1100 nM
CC[C@H](C)[C@@H]1NC(=O)[C@H](Cc2ccccc2)N(C)C(=O)[C@H](Cc2ccccc2)N2C(=O)[C@H](CC[C@H]2O)NC(=O)[C@H](CC(C)C)NC(=O)[C@@H](NC(=O)[C@H](O)CO)[C@@H](C)OC1=O [Micropeptin MM836],IC50,Chymotrypsin [1],1400 nM
CC[C@H](C)[C@@H]1NC(=O)[C@H](Cc2ccc(O)cc2)N(C)C(=O)[C@H]([C@@H](C)CC)N2C(=O)C(CCC2O)NC(=O)[C@H](CC(C)C)NC(=O)[C@@H]2C(OC1=O)C(C)CN2C(=O)[C@H](CCC(N)=O)NC(C)=O (some centres unmarked) [Nostopeptin B],IC50,Chymotrypsin [1],1600 nM
CC[C@H](C)[C@@H]1NC(=O)[C@H](Cc2ccc(OC)cc2)N(C)C(=O)[C@H]([C@@H](C)O)N2C(=O)[C@H](CC[C@H]2O)NC(=O)[C@H](CC(C)C)NC(=O)[C@@H](NC(=O)[C@H](CCC(N)=O)NC(=O)[C@H](CCc2ccc(O)cc2)NC(=O)[C@@H](O)CO)[C@@H](C)OC1=O [Planktopeptin BL1125],IC50,Chymotrypsin [1],800 nM
"CCCC(=O)N1CCCC1C(=O)NC(C(=O)NC1C(=O)NC(CC(C)C)C(=O)NC2CCC(O)N(C2=O)C(Cc2ccccc2)C(=O)N(C)C(Cc2ccc(O)cc2)C(=O)NC(C(C)C)C(=O)OC1C)C(C)OC(=O)C1CCCN1C(=O)CCC (centres unmarked) [Rivulariapeptolide 1185, rivulariapeptolide 1185]",IC50,"Chymotrypsin [2]; 40 min pre-incubation, mean, n = 3, read-out: IC50 Chymotrypsin",13.2 nM
same,Mean (RFU/s),Chymotrypsin [2]; [3],5.046 RFU/s
same,Mean (RFU/s),Chymotrypsin [2]; [4],5.119 RFU/s
same,Mean (RFU/s),Chymotrypsin [2]; [5],5.025 RFU/s
same,Mean (RFU/s),Chymotrypsin [2]; [6],5.024 RFU/s
same,Mean (RFU/s),Chymotrypsin [2]; [7],4.153 RFU/s
same,Mean (RFU/s),Chymotrypsin [2]; [8],2.685 RFU/s
same,Mean (RFU/s),Chymotrypsin [2]; [9],1.084 RFU/s
same,Mean (RFU/s),Chymotrypsin [2]; [10],0.416 RFU/s
same,Mean (RFU/s),Chymotrypsin [2]; [11],0.1823 RFU/s
same,Mean (RFU/s),Chymotrypsin [2]; [12],0 RFU/s
same,Mean (RFU/s),Chymotrypsin [2]; [13],0 RFU/s
same,IC50,"Chymotrypsin [2]; Supplementary Table 5, compounds of this study, read-out: Chymotrypsin IC50",13.2 nM
same,increase in potency towards chymotrypsin,Chymotrypsin [2]; [14],more than threefold
same,IC50,"Elastase; 40 min pre-incubation, mean, n = 3",23.6 nM
same,Mean (RFU/s),Elastase; [3],0.9257 RFU/s
same,Mean (RFU/s),Elastase; [4],0.9033 RFU/s
same,Mean (RFU/s),Elastase; [5],0.876 RFU/s
same,Mean (RFU/s),Elastase; [6],0.8487 RFU/s
same,Mean (RFU/s),Elastase; [7],0.7693 RFU/s
same,Mean (RFU/s),Elastase; [8],0.589 RFU/s
same,Mean (RFU/s),Elastase; [9],0.369 RFU/s
same,Mean (RFU/s),Elastase; [10],0.07933 RFU/s
same,Mean (RFU/s),Elastase; [11],0.02233 RFU/s
same,Mean (RFU/s),Elastase; [12],0 RFU/s
same,Mean (RFU/s),Elastase; [13],0 RFU/s
same,decrease in potency towards elastase,Elastase; [14],fivefold
same,IC50,"Proteinase K; mean, n = 3",55.3 nM
same,Mean (RFU/s),Proteinase K; inhibitor concentration 0.0508053 nM,6.418 RFU/s
same,Mean (RFU/s),Proteinase K; inhibitor concentration 0.152416 nM,6.488 RFU/s
same,Mean (RFU/s),Proteinase K; inhibitor concentration 0.457247 nM,6.316 RFU/s
same,Mean (RFU/s),Proteinase K; inhibitor concentration 1.37174 nM,6.389 RFU/s
same,Mean (RFU/s),Proteinase K; inhibitor concentration 4.11523 nM,6.178 RFU/s
same,Mean (RFU/s),Proteinase K; inhibitor concentration 12.3457 nM,5.621 RFU/s
same,Mean (RFU/s),Proteinase K; inhibitor concentration 37.037 nM,4.195 RFU/s
same,Mean (RFU/s),Proteinase K; inhibitor concentration 111.111 nM,1.657 RFU/s
same,Mean (RFU/s),Proteinase K; inhibitor concentration 333.333 nM,0.4863 RFU/s
same,Mean (RFU/s),Proteinase K; inhibitor concentration 1000 nM,0.13 RFU/s
same,Mean (RFU/s),Proteinase K; inhibitor concentration 3000 nM,0.04267 RFU/s
